The pKa is the negative logarithm of the acid dissociation constant.

The values that follow come from US20220073857A1, “THREE-DIMENSIONAL SUBSTRATE FOR MICROBIAL CULTURES” (POLITECNICO DI MILANO, priority 2018, published 2022).

Series [1] in a line: Mucous barrier model: ability of molecules to cross a barrier (permeable support, “SUBSTRATE” or Mus^3SUB). The format is in vitro ADME. The settings on record: interactive barrier, mucin in the “SUBSTRATE” (Mus^3SUB); FIG. 4. How it is done:
“SUBSTRATE” and Mus^3SUB with the features referred to in Example 2 were tested for the ability thereof to mimic the mucous barrier.
The charts in FIG. 4 show the ability of said molecules to cross a barrier, where the barrier consists of a permeable support, “SUBSTRATE” or Mus^3SUB.

The conditions of series [2]: cited from earlier work.

Take `COc1cccc2c1C(=O)c1c(O)c3c(c(O)c1C2=O)C[C@@](O)(C(=O)CO)C[C@@H]3O[C@H]1C[C@H](N)[C@@H](O)[C@H](C)O1` [Epirubicin]: in series [1], the “transition of the drug across the barrier” value is recorded as “slowed”. In addition, the pKa in series [2] is reported as 8.01. Also, the “log D7.4” value in series [2] (pH 7.4) is given as 0.03.
As for `CC1=C(C(=O)O)N2C(=O)[C@@H](NC(=O)[C@H](N)c3ccccc3)[C@H]2SC1` [Cefalexin], in series [1], the “transition of the drug across the barrier” value is “very quick”.
